From patent US20240148821A1, “PHARMACEUTICAL USE OF CYCLIC PEPTIDE COMPOUND” (CHUGAI SEIYAKU KABUSHIKI KAISHA, priority 2021, published 2024)
Numbered stars: 1 amine (or outer) side, 2 acyl side, 3 side chain; on linkers, the order of the positions; unused ones are H or OH. Bridge positions count the residues as written; N and C are the ends. Square brackets hold non-standard residues; d marks the D form. Peptide text beside a SMILES is read from it. * marks the point of attachment. hPhe(3,5-F2-4-CF3) = N[C@@H](CCc1cc(F)c(C(F)(F)F)c(F)c1)C(=O)O; hPhe(3-Cl-4-CF3) = N[C@@H](CCc1ccc(C(F)(F)F)c(Cl)c1)C(=O)O; hPhe(3-F,4-CF3) = N[C@@H](CCc1ccc(C(F)(F)F)c(F)c1)C(=O)O; NMePhe(4-CF3) = CN[C@@H](Cc1ccc(C(F)(F)F)cc1)C(=O)O; NMePhe(4-Me) = CN[C@@H](Cc1ccc(C)cc1)C(=O)O; NMeNle(6-CHF2) = CN[C@@H](CCCCC(F)F)C(=O)O; NMedβ3hAla = C[C@H](CC(=O)[*:2])N(C)[*:1]; NMeNva(5,5-F2) = CN[C@@H](CCC(F)F)C(=O)O; Phe(3-I) = N[C@@H](Cc1cccc(I)c1)C(=O)O; Pro(4,4-F2) = O=C(O)[C@@H]1CC(F)(F)CN1; NMe3Pal = CN[C@@H](Cc1cccnc1)C(=O)O; NMeY = CN[C@@H](Cc1ccc(O)cc1)C(=O)O; NMeCha = CN[C@@H](CC1CCCCC1)C(=O)O; NMehLeu = CN[C@@H](CCC(C)C)C(=O)O; NMeChg = CN[C@H](C(=O)O)C1CCCCC1; NMeF = CN[C@@H](Cc1ccccc1)C(=O)O; NMeI = CC[C@H](C)[C@H](NC)C(=O)O; N(CH2CH2)2CF2 = FC1(F)CCN(*)CC1; NMeD = CN[C@@H](CC(=O)O)C(=O)O; NMeL = CN[C@@H](CC(C)C)C(=O)O; NMeV = CN[C@H](C(=O)O)C(C)C; d(β3hA) = C[C@@H](N)CC(=O)O; NMeS = CN[C@@H](CO)C(=O)O; NMeA = CN[C@@H](C)C(=O)O; Piperidide = C1CCN(*)CC1; Pyrrolidide = C1CCN(*)C1; dNMeA = CN[C@H](C)C(=O)O; Ac5c = NC1(C(=O)O)CCCC1; Aze = O=C(O)[C@@H]1CCN1; CH2CMe2OH = CC(C)(O)C*; Aib = CC(C)(N)C(=O)O; Isopentyl = CC(C)CC*; Sar = CNCC(=O)O

What follows are compounds tested on Human pancreatic cancer cell line AsPC-1 (G12D mutation Kras) (assay: AsPC-1 cell growth inhibition (AsPC-1 CGI)). Details: read-out: AsPC-1 cell growth inhibition, 50% growth inhibitory concentration (IC50 value); 96 hours, CellTiter-Glo, values classified in ranges.
Assay type: cell-based
Method: Test compounds were serially dilated with dimethyl sulfoxide, and 200 nL was then dispensed to a U-bottom 96-well plate using Labcyte Echo. […] The cell suspension was dispensed to a. plate containing a test compound at 100 μL per well and incubated at 37° C. in a 5% carbon dioxide gas incubator. 96 hours later, 80 μL of CellTiter-Glo (Promega) was added to each well and fluorescence was measured.

SMILES | IC50
CC(C)C[C@H]1C(=O)N[C@@H](C(C)C)C(=O)N(C)CC(=O)N(C)CC(=O)N(C)[C@@H](CC2CCCCC2)C(=O)N(C)CC(=O)N[C@@H](CCc2ccc(C(F)(F)F)c(Cl)c2)C(=O)N2CCC[C@H]2C(=O)NC2(CCCC2)C(=O)N(C)[C@@H](CC(C)C)C(=O)N[C@H](C)CC(=O)N1C [Compound 1452] (cyclo([Ac5c][NMeL][d(β3hA)][NMeL]V[Sar][Sar][NMeCha][Sar][hPhe(3-Cl-4-CF3)]P)) | > 500 nM
CC[C@H](C)[C@@H]1NC(=O)[C@H](C)N(C)C(=O)C[C@@H](C(=O)N2CCCC2)N(C)C(=O)[C@H](CC(C)C)NC(=O)[C@H](Cc2ccccc2)N(C)C(=O)[C@H](C)NC(=O)[C@H](Cc2cccc(I)c2)NC(=O)CN(C)C(=O)[C@H](Cc2ccc(OC)cc2)N(C)C(=O)[C@@H]2CCN2C(=O)[C@H](C)N(C)C1=O [Compound 604] ([NMeA]I[NMeA][Aze][NMeY](Me)[Sar][Phe(3-I)]A[NMeF]L[NMeD]-Pyrrolidide; lactam N-11) | > 500 nM
CC[C@H](C)[C@@H]1NC(=O)[C@H](C)N(C)C(=O)C[C@@H](C(=O)N2CCCCC2)N(C)C(=O)[C@H](C(C)C)N(C)C(=O)C2(CCCC2)NC(=O)[C@@H]2CCCN2C(=O)[C@H](CCc2ccc(C(F)(F)F)c(Cl)c2)NC(=O)[C@@H](C)N(C)C(=O)[C@H](Cc2ccccc2)N(C)C(=O)[C@@H]2CCCN2C(=O)CN(C)C1=O [Compound 1806] ([NMeA]I[Sar]P[NMeF][dNMeA][hPhe(3-Cl-4-CF3)]P[Ac5c][NMeV][NMeD]-Piperidide; lactam N-11) | > 500 nM
CC[C@H](C)[C@@H]1NC(=O)[C@H](CC(C)C)N(C)C(=O)C[C@@H](C(=O)N2CCCCC2)N(C)C(=O)[C@H](CC(C)C)N(C)C(=O)C(C)(C)NC(=O)[C@H](COCC(C)(C)O)N(C)C(=O)[C@H](CCc2ccc(C(F)(F)F)c(Cl)c2)NC(=O)CN(C)C(=O)[C@H](COCCC(C)C)N(C)C(=O)CN(C)C(=O)CN(C)C1=O [Compound 1541] ([NMeL]I[Sar][Sar][NMeS](Isopentyl)[Sar][hPhe(3-Cl-4-CF3)][NMeS](CH2CMe2OH)[Aib][NMeL][NMeD]-Piperidide; lactam N-11) | > 500 nM
CC[C@H](C)[C@@H]1NC(=O)[C@H](CC(C)C)N(C)C(=O)C[C@@H](C)N(C)C(=O)[C@H](CCC(C)C)N(C)C(=O)C2(CCCC2)NC(=O)[C@@H]2CCCN2C(=O)[C@H](CCc2ccc(C(F)(F)F)c(Cl)c2)NC(=O)CN(C)C(=O)[C@H](CC2CCCCC2)N(C)C(=O)CN(C)C(=O)CN(C)C1=O [Compound 22] (cyclo([Ac5c][NMehLeu][NMedβ3hAla][NMeL]I[Sar][Sar][NMeCha][Sar][hPhe(3-Cl-4-CF3)]P)) | > 500 nM
CC[C@H](C)[C@@H]1NC(=O)[C@H](C)N(C)C(=O)C[C@@H](C(=O)N2CCCCC2)N(C)C(=O)[C@H](C2CCCCC2)N(C)C(=O)C2(CCCC2)NC(=O)[C@H](Cc2cccnc2)N(C)C(=O)[C@H](CCc2ccc(C(F)(F)F)c(Cl)c2)NC(=O)CN(C)C(=O)[C@H](CC2CCCCC2)N(C)C(=O)[C@@H]2CCCN2C(=O)CN(C)C1=O [Compound 433] ([NMeA]I[Sar]P[NMeCha][Sar][hPhe(3-Cl-4-CF3)][NMe3Pal][Ac5c][NMeChg][NMeD]-Piperidide; lactam N-11) | > 500 nM
CC[C@H](C)[C@@H]1NC(=O)[C@H](CC(C)C)N(C)C(=O)C[C@@H](C(=O)N(C)C)N(C)C(=O)[C@H]([C@@H](C)CC)N(C)C(=O)C2(CCCC2)NC(=O)[C@H](CCC(F)F)N(C)C(=O)[C@H](CCc2ccc(C(F)(F)F)c(Cl)c2)NC(=O)CN(C)C(=O)[C@H](Cc2ccc(C)cc2)N(C)C(=O)[C@@H]2CCN2C(=O)[C@H](C)N(C)C1=O [Compound 1898] ([NMeL]I[NMeA][Aze][NMePhe(4-Me)][Sar][hPhe(3-Cl-4-CF3)][NMeNva(5,5-F2)][Ac5c][NMeI][NMeD]-NMe2; lactam N-11) | ≤ 20 nM
CC[C@H](C)[C@@H]1NC(=O)[C@H](CC(C)C)N(C)C(=O)C[C@@H](C)NC(=O)[C@H](CC(C)C)N(C)C(=O)C2(CCCC2)NC(=O)[C@@H]2CCCN2C(=O)[C@H](CCc2ccc(C(F)(F)F)c(F)c2)NC(=O)CN(C)C(=O)[C@H](CCCCC(F)F)N(C)C(=O)CN(C)C(=O)CN(C)C1=O [Compound 1515] (cyclo([Ac5c][NMeL][d(β3hA)][NMeL]I[Sar][Sar][NMeNle(6-CHF2)][Sar][hPhe(3-F,4-CF3)]P)) | > 500 nM
CC[C@H](C)[C@@H]1NC(=O)[C@H](CC(C)C)N(C)C(=O)C[C@@H](C(=O)N2CCCCC2)N(C)C(=O)[C@H](C(C)C)N(C)C(=O)[C@H](C)NC(=O)[C@H](CC(=O)N2CCC(F)(F)CC2)N(C)C(=O)[C@H](CCc2ccc(C(F)(F)F)c(Cl)c2)NC(=O)CN(C)C(=O)[C@H](CC2CCCCC2)N(C)C(=O)CN(C)C(=O)CN(C)C1=O [Compound 444] ([NMeL]I[Sar][Sar][NMeCha][Sar][hPhe(3-Cl-4-CF3)][NMeD](N(CH2CH2)2CF2)A[NMeV][NMeD]-Piperidide; lactam N-11) | > 500 nM
CC[C@H](C)[C@@H]1NC(=O)[C@H](CC(C)C)N(C)C(=O)C[C@@H](C)N(C)C(=O)[C@H]([C@@H](C)CC)N(C)C(=O)C2(CCCC2)NC(=O)[C@@H]2CC(F)(F)CN2C(=O)[C@H](CCc2cc(F)c(C(F)(F)F)c(F)c2)NC(=O)CN(C)C(=O)[C@H](Cc2ccc(C(F)(F)F)cc2)N(C)C(=O)[C@@H]2CCN2C(=O)[C@H](C)N(C)C1=O [Compound 863] (cyclo([Ac5c][NMeI][NMedβ3hAla][NMeL]I[NMeA][Aze][NMePhe(4-CF3)][Sar][hPhe(3,5-F2-4-CF3)][Pro(4,4-F2)])) | ≤ 20 nM
